The values that follow come from US6358964B1, “Adenosine, A3 receptor modulators” (priority 2000, dated 2002).

In the experiment the target is T1, human recombinant A3 adenosine receptors (Homo sapiens, UniProt P0DMS8).
T1 construct: expressed in transfected cells; host or cells: CHO cells
T1 sequence (P0DMS8 1-318): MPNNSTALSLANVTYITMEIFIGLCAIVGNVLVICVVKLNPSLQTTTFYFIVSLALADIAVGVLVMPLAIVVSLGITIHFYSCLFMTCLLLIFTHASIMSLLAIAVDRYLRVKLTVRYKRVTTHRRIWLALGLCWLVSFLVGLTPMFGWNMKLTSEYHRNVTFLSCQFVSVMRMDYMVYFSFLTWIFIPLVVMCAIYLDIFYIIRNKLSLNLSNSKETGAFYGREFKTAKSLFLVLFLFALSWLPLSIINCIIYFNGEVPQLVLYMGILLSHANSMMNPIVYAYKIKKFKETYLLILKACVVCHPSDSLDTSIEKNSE
In words: Human cloned A3 adenosine receptor binding assay ([3H]MRE3008-F20 displacement, CHO membranes). To be noted: radioligand binding, read-out: binding affinity at human A3 receptors (hA3). Here is the method:
Inhibitory binding constant, Ki, values can be calculated from those of IC50 according to the Cheng & Prusoff equation (Cheng and Prusoff, Biochem. Pharmacol. 22:3099-3108 (1973)), Ki=IC50/(1+[C*]/KD*), where [C*] is the concentration of the radioligand and KD* its dissociation constant.
The expression of the human […], A2A and A3 receptors in CHO cells has been previously described (Klotz et al., 1998). The cells were grown adherently and maintained in Dulbecco's modified Eagle's medium with nutrient mixture F12 without nucleosides at 37° C. in 5% CO2/95% air. Cells were split two or three times weekly and then the culture medium was removed for membrane preparations. […]
Binding of [^3H] […] Bound and free radioactivity were separated by filtering the assay mixture through Whatman GF/B glass-fiber filters using a Micro-mate 196 cell harvester (Packard Instrument Company). The filter bound radioactivity was counted on Top Count (efficiency 57%) with Micro-Scint 20. The protein concentration was determined according to a BioRad method (Bradford, M. M., “A rapid and sensitive method for the quantification of microgram quantities of protein utilizing the principle of protein dye-binding,” Anal. Biochem. 72, 248, 1976) with bovine albumin as reference standard.

Take `COc1ccc(NC(=O)Nc2nc3ccc(Cl)cc3c3nc(-c4ccco4)nn23)cc1` [Compound 1]: the Ki amounted to 0.14 nM.

For `O=C(Nc1cccc(Cl)c1)Nc1nc2ccc(Cl)cc2c2nc(-c3ccco3)nn12` [Compound 2], the Ki came to 0.19 nM.
